Measured values taken from patent US11571418B2, “Platinum compounds that inhibit constitutive STAT3 signaling and induce cell cycle arrest and apoptosis of malignant cells” (H. LEE MOFFITT CANCER CENTER AND RESEARCH INSTITUTE, INC., priority 2011, dated 2023).
pIC50: −log10 of the molar value.

Target: T1, Stat3 (Mus musculus, UniProt P42227)
T1 construct: Nuclear extract preparation from NIH3T3 stimulated by rhIL-6, NIH3T3/hEGFR stimulated by rhEGF; endogenous in cells; host or cells: NIH3T3/hEGFR fibroblasts stimulated with rhEGF (nuclear extract)
Assay: In vitro Stat3 DNA-binding activity assay, EMSA with hSIE probe
Experimental: FIGS. 1A-1E. Inhibition of in vitro Stat3 DNA-binding activity by a platinum complex. Nuclear extracts or cell lysates containing activated Stat1, Stat3 and Stat5, or E2F1 prepared from NIH3T3/hEGFR that are stimulated with EGF or Sf-9 insect cells that are infected with baculovirus expressing Stat1, Stat3, Stat5, or E2F1, respectively, were treated with or without the indicated concentrations of platinum complex, PLATINUM-401 or Cisplatin, for 30 min at room temperature prior to incubation with radiolabeled oligonucleotide probes, and subjected to EMSA analysis. (FIG. 1A) (i) Stat1 and Stat3 binding activities to hSIE probe, (ii) Stat1 and Stat5 binding activities to MGFe probe, and (iii) plot of % oligonucleotide probe-STAT:STAT complexes versus concentration of PLATINUM-401. […] Positions of STAT: STAT-DNA complexes in gel are labeled. In (A) to (C), the control lanes represent DMSO (vehicle)-treatment.
Nuclear extract preparation and gel shift assays—Nuclear extract preparation from NIH3T3 stimulated by rhIL-6, NIH3T3/hEGFR stimulated by rhEGF, v-Src-transformed fibroblasts (NIH3T3/v-Src) or tumor cell lines and electrophoretic mobility shift assay were carried out as previously described (Turkson et al., 1998; Garcia et al., 1997; Yu et al., 1995). The ^32P-labeled oligonucleotide probes used are hSIE (high affinity sis-inducible element from the c-fos gene, m67 variant, 5′-[…]) (SEQ ID NO:1) that binds Stat1 and Stat3 (Garcia et al., 1997; Wagner et al., 1990) and MGFe (mammary gland factor element from the bovine β-casein gene promoter, 5′-AGATTTCTAGGAATTCAA) (SEQ ID NO:2) for Stat1 and Stat5 binding (49,50). Except where indicated, inhibitor compound was pre-incubated with the nuclear extract for 30 min at room temperature prior to incubation with radiolabeled probe.
Compounds from the NCI 2000 diversity set were screened for inhibition of Stat3 signaling in an in vitro DNA-binding activity assay based on analysis by electrophoretic mobility shift assay (EMSA). A platinum (IV) complex, PLATINUM-401 (NSC 295558) (FIG. 1E), was identified as a potent inhibitor of Stat3 and was further characterized for its anti-Stat3 properties. In the in vitro DNA-binding activity assay, nuclear extracts of equal total protein containing active Stat1, Stat3 and Stat5 were pre-incubated with different concentrations of PLATINUM-401 for 30 min prior to incubation with a [^32P]-labeled oligonucleotide, the m67 high affinity sis-inducible element (hSIE) probe that binds Stat1 and Stat3, or the mammary gland factor element (MGFe) that binds Stat1 and Stat5. Samples were then subjected to EMSA.

T1 sequence (P42227 2-770 limits assumed): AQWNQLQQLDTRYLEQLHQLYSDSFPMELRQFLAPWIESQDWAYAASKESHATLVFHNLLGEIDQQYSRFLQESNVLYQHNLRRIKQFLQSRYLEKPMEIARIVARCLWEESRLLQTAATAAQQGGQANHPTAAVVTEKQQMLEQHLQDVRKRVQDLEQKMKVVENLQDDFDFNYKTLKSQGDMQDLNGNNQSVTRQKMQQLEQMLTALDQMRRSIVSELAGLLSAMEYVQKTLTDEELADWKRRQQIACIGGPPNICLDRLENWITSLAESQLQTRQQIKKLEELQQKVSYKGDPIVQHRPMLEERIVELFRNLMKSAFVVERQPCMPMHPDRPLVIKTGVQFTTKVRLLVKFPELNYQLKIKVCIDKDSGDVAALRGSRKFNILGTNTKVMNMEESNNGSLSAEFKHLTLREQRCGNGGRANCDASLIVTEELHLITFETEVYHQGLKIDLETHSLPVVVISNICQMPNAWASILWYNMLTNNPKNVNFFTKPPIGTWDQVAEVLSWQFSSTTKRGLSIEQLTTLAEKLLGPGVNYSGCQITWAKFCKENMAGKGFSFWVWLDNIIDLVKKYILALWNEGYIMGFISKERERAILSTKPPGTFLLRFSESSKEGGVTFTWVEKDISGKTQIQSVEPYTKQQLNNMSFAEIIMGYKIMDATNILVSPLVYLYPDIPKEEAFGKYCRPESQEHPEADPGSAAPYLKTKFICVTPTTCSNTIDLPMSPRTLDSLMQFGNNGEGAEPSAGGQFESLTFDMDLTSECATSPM

Q: With `CC(O)CN1CCN(CC(C)O)CC1` (stereo not shown) [PLATINUM-401] as the compound, how does the pIC50 read?
A: 5.85

Q: What about the “effect on Stat3 DNA-binding activity at low protein amount” value (1 μg protein) of the same compound?
A: strong and a dose-dependent decrease

Q: What about the “type of inhibition of Stat3 DNA-binding activity (Lineweaver-Burke plot)” value (0.3-2 μM compound, varied hSIE probe) of the same compound?
A: non-competitive

Q: What about the “effect on Stat3 DNA-binding activity at higher protein levels” value (2-3 μg protein) of the same compound?
A: diminished effect

Q: What about the “effect on Stat3 DNA-binding activity when protein is first bound to DNA” value (Stat3 incubated with hSIE probe 30 min, then compound 3-30 min) of the same compound?
A: fails to disrupt

Q: And the “effect on DNA-binding activity of Stat3:Stat3 homodimer” value (pre-incubated 30 min before hSIE probe)?
A: dose-dependent reduction

Q: What about the “effect on Stat3 DNA-binding activity on simultaneous addition of compound and hSIE probe” value (simultaneous addition, data not shown) of the same compound?
A: inhibition
